Test results reported in the NIST ThermoML archive (doi:10.1016/j.fluid.2010.10.028).

Experiment: xn = mol fraction of the nth substance listed
Conditions: Liquid, Vibrating tube method

CC(C)=O [acetone] + CCCCCCC
Conditions	mass density [kg/m3]
407.24 K, 19810 kPa, x1 = 0.7024	645.07
407.24 K, 34830 kPa, x1 = 0.7024	668.11
407.24 K, 39830 kPa, x1 = 0.7024	674.52
407.24 K, 44820 kPa, x1 = 0.7024	680.48
407.24 K, 49810 kPa, x1 = 0.7024	686.06
407.24 K, 54890 kPa, x1 = 0.7024	691.39
407.24 K, 59890 kPa, x1 = 0.7024	696.35
407.24 K, 64860 kPa, x1 = 0.7024	701.02
407.24 K, 69850 kPa, x1 = 0.7024	705.48
407.24 K, 74830 kPa, x1 = 0.7024	709.73
407.24 K, 79820 kPa, x1 = 0.7024	713.81
407.24 K, 84800 kPa, x1 = 0.7024	717.74
407.24 K, 94760 kPa, x1 = 0.7024	725.11
407.24 K, 99830 kPa, x1 = 0.7024	728.64
407.24 K, 119800 kPa, x1 = 0.7024	741.56
407.25 K, 89790 kPa, x1 = 0.7024	721.47
407.25 K, 104820 kPa, x1 = 0.7024	732.04
407.25 K, 109820 kPa, x1 = 0.7024	735.31
407.25 K, 114820 kPa, x1 = 0.7024	738.47
407.25 K, 124810 kPa, x1 = 0.7024	744.56
407.25 K, 129820 kPa, x1 = 0.7024	747.45
417.16 K, 1870 kPa, x1 = 0.611	581.34
417.16 K, 4870 kPa, x1 = 0.611	591.69
417.16 K, 9860 kPa, x1 = 0.611	605.85
417.16 K, 14870 kPa, x1 = 0.611	617.52
417.16 K, 19870 kPa, x1 = 0.611	627.57
417.16 K, 29860 kPa, x1 = 0.611	644.4
417.16 K, 34860 kPa, x1 = 0.611	651.63
417.16 K, 44870 kPa, x1 = 0.611	664.46
417.16 K, 49860 kPa, x1 = 0.611	670.17
417.16 K, 54850 kPa, x1 = 0.611	675.54
417.16 K, 59830 kPa, x1 = 0.611	680.59
417.16 K, 64940 kPa, x1 = 0.611	685.5
417.16 K, 69910 kPa, x1 = 0.611	690.02
417.16 K, 74900 kPa, x1 = 0.611	694.35
417.16 K, 79880 kPa, x1 = 0.611	698.49
417.16 K, 84870 kPa, x1 = 0.611	702.46
417.16 K, 89850 kPa, x1 = 0.611	706.26
417.16 K, 94840 kPa, x1 = 0.611	709.93
417.16 K, 99820 kPa, x1 = 0.611	713.43
417.16 K, 119850 kPa, x1 = 0.611	726.48
417.17 K, 1870 kPa, x1 = 0.492	575.55
417.17 K, 4860 kPa, x1 = 0.492	585.56
417.17 K, 9850 kPa, x1 = 0.492	599.32
417.17 K, 24840 kPa, x1 = 0.611	636.42
417.17 K, 39880 kPa, x1 = 0.611	658.3
417.17 K, 44850 kPa, x1 = 0.492	656.44
417.17 K, 49850 kPa, x1 = 0.492	662.04
417.17 K, 54840 kPa, x1 = 0.492	667.29
417.17 K, 59840 kPa, x1 = 0.492	672.26
417.17 K, 104790 kPa, x1 = 0.611	716.82
417.17 K, 104800 kPa, x1 = 0.492	707.7
417.17 K, 109770 kPa, x1 = 0.492	710.89
417.17 K, 109780 kPa, x1 = 0.611	720.13
417.17 K, 114870 kPa, x1 = 0.611	723.4
417.17 K, 124850 kPa, x1 = 0.611	729.46
417.17 K, 129850 kPa, x1 = 0.611	732.41
417.18 K, 1840 kPa, x1 = 0.801	597.33
417.18 K, 4870 kPa, x1 = 0.801	607.96
417.18 K, 14870 kPa, x1 = 0.492	610.71
417.18 K, 19870 kPa, x1 = 0.492	620.5
417.18 K, 24830 kPa, x1 = 0.492	629.07
417.18 K, 29860 kPa, x1 = 0.492	636.88
417.18 K, 34860 kPa, x1 = 0.492	643.95
417.18 K, 39860 kPa, x1 = 0.492	650.43
417.18 K, 64820 kPa, x1 = 0.492	676.9
417.18 K, 69910 kPa, x1 = 0.492	681.45
417.18 K, 74890 kPa, x1 = 0.492	685.69
417.18 K, 79880 kPa, x1 = 0.492	689.75
417.18 K, 84870 kPa, x1 = 0.492	693.62
417.18 K, 89860 kPa, x1 = 0.492	697.34
417.18 K, 94830 kPa, x1 = 0.492	700.9
417.18 K, 99820 kPa, x1 = 0.492	704.36
417.18 K, 114850 kPa, x1 = 0.492	714.07
417.18 K, 119830 kPa, x1 = 0.492	717.08
417.18 K, 124850 kPa, x1 = 0.492	720.01
417.18 K, 129840 kPa, x1 = 0.492	722.86
417.19 K, 2070 kPa, x1 = 0.4	611.4
417.19 K, 2070 kPa, x1 = 0.8992	611.4
417.19 K, 5030 kPa, x1 = 0.4	621.55
417.19 K, 5030 kPa, x1 = 0.8992	621.55
417.19 K, 9870 kPa, x1 = 0.801	622.44
417.19 K, 10010 kPa, x1 = 0.4	635.78
417.19 K, 10010 kPa, x1 = 0.8992	635.78
417.19 K, 14860 kPa, x1 = 0.801	634.41
417.19 K, 15000 kPa, x1 = 0.4	647.66
417.19 K, 15000 kPa, x1 = 0.8992	647.66
417.19 K, 19860 kPa, x1 = 0.801	644.76
417.19 K, 19970 kPa, x1 = 0.4	657.99
417.19 K, 19970 kPa, x1 = 0.8992	657.99
417.19 K, 24870 kPa, x1 = 0.801	653.93
